# In EP4385508A1, “FURAN FATTY ACIDS FOR ENHANCING MUSCLE MASS” (Centre de Coopération Internationale en Recherche …, priority 2022, dated 2024):
# What was measured:
# mTOR (Ser2448) = experiment: mTOR phosphorylation by Western blot in C2C12 myotubes; format: cell-based, Mouse
# Description: (§1) Mouse myoblasts of the C2C12 cell line (ATCC) were seeded at a plating density of 7000 cells/cm2 in 6-well plates. They were grown in DMEM high glucose (4.5g/l) supplemented with gentamycin (50 µg/mL), amphotericin (50 µg/mL), and fetal calf serum (10%). Terminal differentiation was induced at cell confluence by lowering the medium serum concentration (0.5%).
# (§2) When indicated, FuFA-F2 was added to the culture medium at the indicated concentration. For the differentiation studies, FuFA-F2 was added at the confluence at the same time as the change in media condition. Three doses of FuFA-F2 were studied at a final concentration of 1, 10, or 50 µM. Human insulin was used at a concentration of 100 nM.
# Protein levels were assessed by Western blotting. Total proteins were measured using the Bio-Rad protein assay (Hercules, CA, USA) according to the manufacturer's instructions. Total proteins were lysed in RIPA buffer (20mM Tris, 150mM NaCl, 1mM EDTA, 1% NP40, pH 7.5 + complete cocktail protease inhibitors + Pierce phosphatase inhibitors tablet). 40 µg of cell extracts were loaded and blotted onto a nitrocellulose membrane. The membranes were washed, blocked with 5% nonfat milk and incubated in primary antibody overnight at 4°C. The membranes were then washed in TBS-Tween (10mM Tris, 140mM NaCl, and 0.2% Tween-20), incubated with the appropriate secondary antibody coupled to horseradish peroxidase, and washed again in TBS-Tween. […] Touch Software (version 5.2.1) (Hercules, CA, USA). […]
# It is shown that FuFA-F2 increased protein accretion in myotubes. Protein homeostasis is determined by the dynamic balance between protein synthesis and degradation. Protein synthesis was evaluated by measuring the phosphorylation of Akt (Ser473), mTOR (Ser2448) and 4E-BP1 (Thr37/46), which are major regulators of translation and protein synthesis. […]
# Citrate synthase (CS) = experiment: Citrate synthase activity in quadriceps of supplemented C57Bl6 mice; format: in vivo; conditions: 20mg/kg oral gavage
# Description: Male C57Bl/6J wild-type mice were obtained from Janvier at 12 weeks of age and were randomly assigned to one of the two groups based on body weight. Mice were housed 2 per cage and maintained on a 12-hour light/dark cycle (lights on at 7:30 pm). Food and water were provided ad libitum. Enrichment (nesting cotton squares) was provided in each cage. Mice were treated once daily by oral gavage with vehicle (50% PEG-400, 0.5% Tween 80, and 49.5% distilled water) or FuFA-F2 (20 mg/kg). All animal experiments were performed according to European directives (86/609/CEE and 2010/63/CEE) and approved by the regional animal experimentation ethics committe: Région Languedoc-Roussillon (No36). […]
# Mitochondrial respiratory complex activities were determined as previously described (Casas et al., 2008, PloS ONE, Vol. 3(6) : e2501). Citrate synthase (CS) activity was measured according to Srere (Srere et al., 1967, Science, Vol. 158(3803) : 936-937) by following the color formation of 5-thio-2-nitrobenzoic acid at 412 nm. The enzymatic activity of complex IV (cytochrome c oxidase) was measured according to Wharton and Tzagoloff (Wharton et al., 1967, Methods in Enzymology, Vol. 10, Edn Elsevier BV, Amsterdam, The Netherlands), a spectrophotometer following the oxidation of reduced cytochrome c at 550 nm, pH 7.4, and 37 °C. […]
# ULK1 = ULK1 phosphorylation and total level by Western blot in C2C12 myotubes; format: cell-based, Mouse; conditions: highest dose (50 µM)
# Description: as §1, §2
# Protein levels were assessed by Western blotting. Total proteins were measured using the Bio-Rad protein assay (Hercules, CA, USA) according to the manufacturer's instructions. […]
# AMP activated protein kinase (AMPK) is a crucial cellular energy sensor protein and is activated when intracellular ATP level decreases to regulate autophagy initiation (Hardie et al., 2012, Nat Rev Mol Cell Bio, Vol. 13 (4) : 251-262). […] The autophagy-related signaling was further evaluated by measuring the MTORC1 mediated phosphorylation […] at Ser757 which disrupts the interaction between ULK1 and AMPK. […] Therefore, the autophagic flux was assessed by measuring the conversion of LC3-I to LC3-II, through lipidation.
compound,measurement,setting,value
CCCCCc1cc(C)c(CCCCCCCCC(=O)O)o1 [FuFA-F2],mTOR phosphorylation at Ser2448,"mTOR (Ser2448); 3-day pretreatment, 2 hours low-glucose medium, then treatment for 30 minutes, insulin alone 100 nM",significant increase
same,mTOR phosphorylation,"mTOR (Ser2448); high glucose medium, 3 days, with or without FuFA-F2",no difference
same,rapid effect on mTOR phosphorylation,"mTOR (Ser2448); without pretreatment, 30 min incubation after low-glucose medium",not observed
same,Citrate synthase (CS),Citrate synthase (CS),not modified
same,ULK1 phosphorylation at Ser757,ULK1,decreased
same,total Ulk level,ULK1,also decreased
